# Laboratory results as given in PubChem BioAssay AID1996.
# Settings: buffer; pH 7.4; 200.0 µM
row,Structure (SMILES),solubility kinetic [µg/mL]
1,CCC(C)NC(=O)COc1ccc(OCc2ccccc2)cc1 (centres undefined),4.8
2,O=[N+]([O-])c1ccc(N2CCN(c3ccc(F)cc3)CC2)nc1,0.3
3,Cc1ccc(NC(=O)C2CC(=O)N(Cc3ccco3)C2)cc1 (centres undefined),39.7
4,NS(=O)(=O)c1ccc(NC(=O)COC(=O)Cc2c[nH]c3ccccc23)cc1,37.8
5,Br.CC(C)CC(N)C(=O)OCc1ccc([N+](=O)[O-])cc1 (centres undefined),> 52.1
6,CNC(=O)Nc1ccc2nc(C)oc2c1,> 30.8
7,COc1cccc(CNC(=O)COC(=O)c2nn(C)c(=O)c3ccccc23)c1,> 57.2
8,Cn1c(=O)c2c(nc(N3CCOCC3)n2C/C=C/c2ccccc2)n(C)c1=O,51.9
9,Cc1ccc(C(=O)NC2CCCc3ccccc32)cc1[N+](=O)[O-] (centres undefined),9.3
10,CN1CCCN(S(=O)(=O)c2cccc(C#N)c2)CC1.Cl,> 47.4
11,O=C(Nc1nccs1)C1CCCN1/C=C/C(=O)C(F)(F)F (centres undefined),46.1
12,CC(c1ccccc1)N1CC(C(=O)Nc2nccs2)CC1=O (centres undefined),> 47.3
13,CCCCNc1ccc(C(=O)OCCN(C)C)cc1.Cl,> 45.1
14,CC1CCN(S(=O)(=O)c2ccc3c(c2)oc(=O)n3C)CC1,3
15,COc1ccc(Cl)cc1NC(=O)C1(c2cccs2)CCOCC1,21.7
16,Cc1ccc(C)c(NC(=O)CN(C)C(=O)c2cc3ccccc3oc2=O)c1,> 54.7
17,CCN(CC)CC(=O)Nc1sc(C)cc1C(=O)c1ccccc1,2.5
18,COc1cc(CN2CCCCCC2)cc(OC)c1O,27
19,O=C(O)c1ccccc1N(Cc1ccccc1)C(=O)COc1ccccc1,> 54.2
20,O=C(CCn1c(=S)oc2ccccc21)NC1CCCCC1,1.6
21,O=C(COC(=O)CCC(=O)c1ccc(Cl)cc1)NCc1ccc(F)cc1,6.4
22,Cc1c(Cl)cccc1NC(=S)NCc1ccc(F)cc1,3.7
23,COc1ccccc1OCCn1c(SCC(N)=O)nc2ccccc21,45.4
24,Cc1ccccc1-n1nc2c(c1NC(=O)C(C)(C)C)CS(=O)(=O)C2,> 52.1

row,Structure (SMILES),solubility kinetic [µg/mL]
1,CCOc1ccc(S(=O)(=O)NCc2cccnc2)cc1C(C)C,> 50.2
2,CC(=O)Nc1ccc(SCc2ncc(-c3ccccc3)o2)cc1,45.3
3,Cc1nc(C)c(N)c(=O)[nH]1.Cl,> 26.3
4,O=C(COC(=O)c1ccccc1OCc1ccc(Cl)cc1)NCC1CCCO1 (centres undefined),> 60.6
5,O=C(O)c1ccccc1N1C(=O)C2C3CCC(C3)C2C1=O (centres undefined),39.5
6,O=C(Nc1cccc(Cl)c1)C1CC1c1ccccc1 (centres undefined),3.3
7,O=C(O)C1CC(O)CN1C(=S)Nc1ccccc1 (centres undefined),> 39.9
8,CCOn1c(=O)c(=O)n(OC)c2ccccc21,> 35.4
9,OCC1(CO)COC(CCc2ccccc2)=N1,> 35.3
10,O=C(NCCc1c[nH]c2ccccc12)c1ccccc1,34.7
11,Nc1nc(-c2ccc3c(c2)OCCO3)c(CC(=O)O)s1,41.1
12,CCOc1ccc(NC(=S)N(C)C)cc1,> 33.6
13,COc1cccc(C(=O)NC23CC4CC(CC(C4)C2)C3)c1,24.8
14,Cc1cccc(Nc2nc(NCc3ccco3)nc(N)c2[N+](=O)[O-])c1,< 0.1
15,Cn1c(CO)cnc1SCC(=O)c1ccc(F)cc1,> 42
16,Cc1ccc(NC(=O)Nc2ccc(F)cc2F)c(OC(F)F)c1,< 0.4
17,COc1ccc(C(=O)Nc2nc(C)cc(C)n2)cc1,> 38.6
18,Cc1ccccc1NC(=O)CCN1C(=O)c2ccccc2C1=O,15.3
19,Cc1[nH]c(=O)[nH]c(=O)c1S(=O)(=O)Nc1ccc(S(N)(=O)=O)cc1,48.8
20,O/N=C\c1cnc(N2CCN(c3ccccc3)CC2)s1,2.9
21,COc1ccc(C(=O)NCC(=O)OCc2ccccc2F)cc1,47.6
22,O=C(c1ccc(Cl)cc1Cl)N1CCN(c2ccccn2)CC1,> 50.4
23,COc1cccc(NC(=S)N(CCN(C)C)C(C)c2cccnc2)c1 (centres undefined),> 53.8
24,COc1ccc(C)cc1NC(=O)CCCN1C(=O)CN(C)C1=O,> 47.9

row,Structure (SMILES),solubility kinetic [µg/mL]
1,Cc1cccc2c(=O)cc(C(F)(F)F)[nH]c12,> 34.1
2,CC(C)C(NC(=O)c1ccccc1)C(=O)N1CCCCCC1 (centres undefined),> 45.4
3,Cc1cccc(-c2noc(CNC(=O)c3ccco3)n2)c1,42.5
4,O=C(OCC(=O)N1CCOCC1)c1ccccc1Br,> 49.2
5,N#CC(C#N)=C1NC2(CCCCC2)Cc2ccccc21,0.8
6,N#C/C(=C\c1cccs1)C(=O)Nc1ccccn1,12.8
7,CN(C)S(=O)(=O)Nc1ccccc1F,30.2
8,O=C1CCC(C(=O)Nc2ccccc2N2CCOCC2)=NN1,> 45.3
9,Cc1ccc(NC(=S)NCc2ccc3c(c2)cc(C)n3C)c(C)c1,0.6
10,NC(=O)c1ccccc1NC(=O)CSC1=NCCS1,> 44.3
11,O=C(NCc1ccc2c(c1)OCO2)Nc1ccc([N+](=O)[O-])cc1,0.9
12,Cc1nc2c(ccc3c([N+](=O)[O-])cccc32)c(C)c1C,0.8
13,O=C(NCC(=O)N1CCN(c2ccccc2O)CC1)c1ccccc1,49.4
14,CN(C)c1cccc(N(C)C)c1CNC(=O)C(C)(C)C,39.7
15,CC1=C(C(=O)N(C)C)C(c2ccc(C)s2)NC(=S)N1 (centres undefined),31.4
16,CCCCOc1ccc(C(=O)NCCC(=O)NCCCC(=O)OCC)cc1,> 56.8
17,O=C(CN1C(=O)NC2(CCCC2)C1=O)NCCc1ccc(F)cc1,44.4
18,Cc1noc(C)c1S(=O)(=O)N1CCC(C(=O)O)CC1,> 43.2
19,CCOC(=O)c1c(C)[nH]c(C(=O)OCc2ccc(F)cc2)c1C,2
20,CN(C)C(=O)COc1ccc2c(-c3ccccc3)cc(=O)oc2c1,12.6
21,CCCOc1ccc(CSC(=N)N)cc1C(=O)OC.Cl,42.6
22,Cc1ccccc1OCCC(=O)Nc1ccc2c(C)cc(=O)oc2c1,4.2
23,CCCCNC(=NCc1cccc(C(F)(F)F)c1)Nc1ccccc1,45.7
24,O=C(Nc1ccc(Cl)cc1N1CCOCC1)C1CC1,> 42.1

row,Structure (SMILES),solubility kinetic [µg/mL]
1,O=[N+]([O-])c1ccc(CSc2ncnc3ccccc23)cc1,5.6
2,O=C1CCCN1CCCNS(=O)(=O)c1ccc(F)c(F)c1,> 47.8
3,O=C(c1cc(-c2ccccc2O)on1)N1CCCCCC1,2.6
4,O=C(c1ccco1)N1CCCC(Nc2ccc3c(c2)OCCO3)C1 (centres undefined),44.7
5,S=C(Nc1ccc(Br)cc1)N1CCN(c2ccccn2)CC1,2.1
6,CC(=O)N(Cc1ccccc1)c1ccccc1C(=O)O,> 40.4
7,C=CCn1c(=O)c(C(=O)Nc2cc(C)ccn2)c(O)c2ccccc21,< 0.2
8,Cc1ccc(OCC(=O)Nc2ccc(NC(=O)c3ccccc3)c(C)c2)cc1,1
9,COc1cc(C2C(C#N)=C(N)OC3=C2C(=O)CC(C)(C)C3)cc2c1OCO2 (centres undefined),21.6
10,O=C(c1ccc2ccccc2c1)N1CCN(Cc2ccccc2)CC1,> 49.6
11,COc1ccc(C(=O)NCC(=O)OCCOc2ccc(Cl)cc2)cc1OC,13.6
12,O=C(O)CC(NC(=O)CCc1ccccc1)c1ccc(Cl)cc1 (centres undefined),44.5
13,O=C(CNC(=O)c1ccccc1F)OC1CCOC1=O (centres undefined),> 42.2
14,CCCCc1nc(C(N)=O)c2[nH]c(=O)n(-c3ccc(OCC)cc3)c2n1,5.6
15,CCCCNC(=O)c1ccc2c(c1)N(C)C(=O)c1ccccc1S2,5.3
16,O=c1[nH]c2ccsc2c(=O)n1CCO,> 31.8
17,CN(Cc1nc(CCc2ccccc2)no1)Cc1cccs1,18.4
18,Nc1nc(F)nc2c1ncn2[C@@H]1O[C@H](CO)[C@@H](O)[C@H]1O,> 42.8
19,Cc1ccc(NC(=O)/C(Cl)=C\c2ccccc2)cc1,1.4
20,C/C(=N\O)C(C)(C)Nc1ccc(Br)cc1,> 40.7
21,CCCOc1ncnc2c1[nH]c1ccc(OC)cc12,0.5
22,Cl.OCCN1CCN(CC/C=C2/c3ccccc3Sc3ccc(C(F)(F)F)cc32)CC1,60.1
23,CCNc1nc(NC(C)CC)nc(ON=C(C)C)n1 (centres undefined),> 40
24,Cc1ccc(NC(=S)N2CCC(NC(=O)c3ccc(C)cc3)CC2)cc1,2.2

row,Structure (SMILES),solubility kinetic [µg/mL]
1,Cc1nc(C(N)=O)c(N)n1CCc1ccccc1,35.7
2,OC1(C#CCCN2CCCCC2)c2ccccc2-c2ccccc21,> 47.6
3,CCC(C)c1ccccc1OCCCN(C)Cc1ccccc1 (centres undefined),4.1
4,CC(=O)Nc1nc2ccccc2n1Cc1ccc(C)cc1,8.1
5,CCN(CC)CCNC(=O)c1ccc(NC(=O)Cc2ccsc2)cc1,49.4
6,Cc1cc(NC(=O)C(Cl)(Cl)Cl)no1,35.7
7,O=[N+]([O-])c1ccccc1OCCN1CCOCC1,> 37.8
8,O=C(/C=C/c1ccc2c(c1)OCO2)c1ccccn1,4.2
9,Cc1cccc(S(=O)(=O)NC2CCCCCCC2)c1,25.2
10,CN1CCN(S(=O)(=O)c2ccc3c(c2)CC(=O)N3C)CC1,> 46.4
11,O=C(NC(=O)c1ccc(F)cc1F)Nc1ccc(Cl)cc1,2.8
12,N#C/C(=C\c1ccc(O)c([N+](=O)[O-])c1)C(=O)NCc1ccccc1,46.2
13,O=C(COC(=O)CCc1c[nH]c2ccccc12)Nc1ccccc1,4.5
14,O=C(NCc1csc(-c2cccs2)n1)c1ccsc1,45.9
15,Cc1cc(N2C(=O)C(O)=C(C(=O)c3cccs3)C2c2ccc(F)cc2)no1 (centres undefined),> 57.7
16,Cc1ccc(C)c(S(=O)(=O)NCc2ccc(C(=O)N3CCOCC3)cc2)c1,> 58.3
17,CC(NC(=O)/C(=C\c1ccco1)NC(=O)c1ccco1)C(=O)O (centres undefined),46.5
18,Cc1[nH]c(=S)c(C#N)c(C)c1Cc1ccc(Cl)cc1Cl,2.2
19,COc1ccc(C(=O)OCC(=O)N2C(C)CCCC2C)cc1S(=O)(=O)N1CCOCC1 (centres undefined),> 68.2
20,CCC(=O)N1CCc2nc(-c3ccccc3)sc2C1,> 40.9
21,CC(C)CCOc1cccc(OCC(=O)Nc2ccncc2)c1,27.7
22,COc1ccc(CCNC(=O)COC(=O)Cc2ccccc2[N+](=O)[O-])cc1,> 55.9
23,NS(=O)(=O)c1ccc(CCNS(=O)(=O)c2ccc(Cl)s2)cc1,> 57.1
